Experimental data taken from US9150510B2, “Amino acid derivative” (NIPPON ZOKI PHARMACEUTICAL CO., LTD., priority 2008, dated 2015).
Structures can show the parent of a compound that is named as a salt.

Legend:
[1] = Test of blood kinetics in the rats; type: in vivo; settings: rat, plasma, 2 mg/kg, fasted Wistar male rats, oral single dose of mixed solution of five compounds, each compound 2 mg/5 mL/kg, n=5, LC-MS; for AUC(0-inf): read-out: AUC0-∞ (area under the curve for concentration in blood, time 0 to infinite hours); for Cmax: read-out: Cmax (maximum concentration in plasma)
Protocol: Ten milligrams of a compound of the present invention was properly converted to a sodium salt with the same amount of sodium hydroxide, where necessary, and each was dissolved in 5 mL of water. Five compounds each among these aqueous solutions of the compounds of the present inventions were mixed, to prepare a mixed solution containing 0.4 mg/mL each of each compound. Six-week old Wistar SPF male rats that were fasted were orally administered with the mixed solution in a single dose using a gavage tube (each compound 2 mg/5 mL/kg, n=5). At time points of 0.25, 0.5, 1, 2, 4, and 8 hours after the administration, about 150 μL of blood was collected using a heparin-added capillary tube from veins of rat tails. The capillary tubes were centrifuged to collect the plasma. The plasma sample was deprotenized and the supernatant was diluted to prepare each of measurement sample solutions. The concentration of the compound of the present invention in each of measurement sample solutions was quantified using LC-MS, and Cmax (maximum concentration in plasma) and AUC (area under the curve for concentration in blood, time 0 to infinite (∞) hours) of the compounds of the present invention were calculated.

ddY-type mice = experiment: Analgesic efficacy test (1): acetic acid writhing test (nociceptive pain model animal); type: in vivo; settings: Mus musculus, 25 min, writhing number, male ddY mice, acetic acid i.p. 25 min after administration, mean ± standard error, read-out: Percent Suppression (%)
Excerpt: A compound of the present invention was orally administered to mice, to carry out an analgesic efficacy test according to acetic acid writhing test (nociceptive pain model animal). As an experimental animal, 4-week old male ddY-type mice were previously bred, and thereafter 8 mice per one group were used in the experiment. A solution or suspension prepared by dissolving or suspending a compound of the present invention in a 0.5% (w/v) aqueous CMC-Na solution was orally administered as a test substance in a single dose. While, to a control group, a 0.5% (w/v) aqueous CMC-Na solution was administered in the same manner. After 25 minutes from administration, the mice were intraperitoneally administered with a 0.7% (v/v) acetic acid/physiological saline at the dose of 10 mL/kg. From 5 minutes thereafter, writhing number in a 10-minute period was counted, and a suppressive rate for each individual (mean±standard error) was calculated by the following formula: […]
In the test for significance difference, Baltlett's test was carried out in the comparison between multiple groups of the group administered with test substance with the control group. In the case of homoscedasticity, Dunnett's multiple comparison test of parametrics, and in the case of heteroscedasticity, Dunnett's multiple comparison test of non-parametrics were used. In addition, in the test of dose dependency, Jockheere-Terpstra's test was used. In all cases, significance difference was considered to be found at P<0.05.

Chung model rat = experiment: Analgesic efficacy test (2): Chung model rat, neuropathic pain model (allodynia, von Frey filament); type: in vivo; settings: Table 13; oral single dose 10 mg/kg; Wistar male rats, L5 spinal nerve ligation; mean ± standard error
Protocol: An analgesic efficacy test was conducted using a Chung model rat, a neuropathic pain model. Using Wistar male rats after passing 9-week old as an experimental animal, a model rat was prepared in accordance with the method of Kim and Chung (Pain, 50, 355-363, 1992). Specifically, left L5 spinal nerves of rats were exposed under anesthetization with pentobarbital (35 mg/kg, intraperitoneal administration), and firmly ligated with 5-0 silk yarn at L5 dorsal root ganglion peripheral side. The animals were placed in a transparent acrylic cage of which bottom was wire netted The measurement of allodynia was carried out using von Frey filament (manufactured by North Coast Medical Inc.) and a 50% reaction threshold was calculated according to an up-down method, in accordance with methods of Chaplan et al. (J. Neurosci. Method, 53, 55-63, 1994) and Lee et al. (J. Neurophysiol., 81, 2226-2233, 1999). The 50% reaction thresholds were measured twice before injury of the spinal nerve, and those animals of which thresholds were outside the standard were removed from the operation of spinal nerve injury. On or after 14 days from the spinal nerve injury, a 50% reaction threshold was measured, and those showing thresholds of 1 g or more and less than 4 g were used as experimental animal. The group was constituted by 7 rats per group so that an average of a 50% reaction threshold for each group would be nearly even.
A solution or suspension prepared by dissolving or suspending a compound of the present invention in a 0.5% (w/v) aqueous CMC-Na solution was orally administered as a test substance in a single dose while, a 0.5% (w/v) aqueous CMC-Na solution was administered in the same manner to the control group for nerve injury. After 30 minutes from the administration, the measurement of allodynia was carried out, and a 50% reaction threshold (mean±standard error) was calculated. In the test for significance difference, Baltlett's test was carried out in the comparison between multiple groups of the group administered with test substance with the control group for nerve injury. In the case of homoscedasticity, Dunnett's multiple comparison test of parametrics, and in the case of heteroscedasticity, Dunnett's multiple comparison test of non-parametrics were used. In all cases, significance difference was considered to be found at P<0.05.

melting point [°C]	AUC(0-inf) [1] [µg·h/mL]	Cmax [1] [µg/mL]	SMILES	also measured
163 to 164	–	–	O=C(C=Cc1cccc(O)c1)N[C@@H](Cc1c[nH]c2ccccc12)C(=O)O (as salt: sodium) [Compound 6, N^α-[3-(3-Hydroxyphenyl)acryloyl]-L-tryptophan]	–
150 to 151	–	–	C=CC(=O)N[C@@H](Cc1c[nH]c2ccccc12)C(=O)O (as salt: sodium) [Compound 1, N^α-Acryloyl-L-tryptophan]	–
140 to 141	–	–	O=C(C=Cc1ccc(F)cc1)N[C@@H](Cc1c[nH]c2ccccc12)C(=O)O (as salt: sodium) [Compound 5, N^α-[3-(4-Fluorophenyl)acryloyl]-L-tryptophan]	–
158 to 159	–	–	O=C(C=Cc1ccc(O)cc1)N[C@@H](Cc1c[nH]c2ccccc12)C(=O)O (as salt: sodium) [Compound 7, N^α-[3-(4-Hydroxyphenyl)acryloyl]-L-tryptophan]	–
172 to 173	–	–	O=C(C=Cc1ccccc1O)N[C@@H](Cc1c[nH]c2ccccc12)C(=O)O (as salt: sodium) [Compound 2, N^α-[3-(2-Hydroxyphenyl)acryloyl]-L-tryptophan]	–
104 to 105	26.2	5.8	O=C(C=Cc1ccccc1F)N[C@@H](Cc1c[nH]c2ccccc12)C(=O)O [Compound 3, N^α-[3-(2-Fluorophenyl)acryloyl]-L-tryptophan]	inhibition in vivo at 3 mg/kg (ddY-type mice; oral single dose 3 mg/kg): 36.9 ± 10.6%
–	10.6	1.7	COc1ccccc1C=CC(=O)N[C@@H](Cc1c[nH]c2ccccc12)C(=O)O [Compound 11, N^α-[3-(2-Methoxyphenyl)acryloyl]-L-tryptophan]	50% Reaction Threshold (g), Group Administered with Test Substance, 30 Min. After Administration (Chung model rat): 10.55 ± 1.50 g; inhibition in vivo at 100 mg/kg (ddY-type mice; oral single dose 100 mg/kg): 60.9 ± 5.9%
124 to 125	–	–	N#Cc1ccccc1C=CC(=O)N[C@@H](Cc1c[nH]c2ccccc12)C(=O)O (as salt: sodium) [Compound 9, N^α-[3-(2-Cyanophenyl)acryloyl]-L-tryptophan]	–
–	24.2	7.1	C=CC(=O)N[C@@H](Cc1c[nH]c2ccccc12)C(=O)O [Compound 1, N^α-Acryloyl-L-tryptophan]	50% Reaction Threshold (g), Group Administered with Test Substance, 30 Min. After Administration (Chung model rat): 11.18 ± 1.74 g; inhibition in vivo at 10 mg/kg (ddY-type mice; oral single dose 10 mg/kg): 25.7 ± 6.3%
